Calls of active or inactive are those of the source.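 How the source made its calls: active means maximal inhibition of USP17 at or above 30% in the confirmation dose-response, a value not among the printed readouts; inactive means the rest.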 A value given as a limit tells only on which side of the number the result lay.

What is called IC50 is the midpoint of a concentration-inhibition curve.

Chain of Ubiquitin carboxyl-terminal hydrolase 17-like protein 5 (Homo sapiens) (A8MUK1 whole entry, looked up): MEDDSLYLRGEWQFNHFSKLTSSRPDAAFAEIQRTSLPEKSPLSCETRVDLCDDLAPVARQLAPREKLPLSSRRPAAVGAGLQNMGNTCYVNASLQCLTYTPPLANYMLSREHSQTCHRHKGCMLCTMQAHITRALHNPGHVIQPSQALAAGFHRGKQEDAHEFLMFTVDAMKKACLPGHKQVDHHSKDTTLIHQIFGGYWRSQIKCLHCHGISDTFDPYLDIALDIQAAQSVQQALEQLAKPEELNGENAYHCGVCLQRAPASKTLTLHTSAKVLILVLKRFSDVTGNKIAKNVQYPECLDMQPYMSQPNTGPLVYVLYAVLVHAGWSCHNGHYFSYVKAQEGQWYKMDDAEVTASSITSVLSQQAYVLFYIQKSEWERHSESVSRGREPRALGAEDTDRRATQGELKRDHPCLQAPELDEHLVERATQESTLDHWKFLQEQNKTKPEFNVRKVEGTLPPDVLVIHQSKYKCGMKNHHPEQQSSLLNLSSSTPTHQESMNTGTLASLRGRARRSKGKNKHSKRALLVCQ

This experiment concerns the target Ubiquitin carboxyl-terminal hydrolase 17-like protein 5 (Homo sapiens) (UniProt A8MUK1). The experiment is described as follows: ubiquitin-specific protease 17 inhibitors, concentration series, biochemical, verification of primary actives (AID 1645864). The conditions noted are these: purified USP17, ubiquitin-rhodamine cleavage fluorescence, 3 h.
On to `O=C(Cn1c(=O)n(Cc2ccc(F)cc2)c(=O)c2sccc21)Nc1cccc(Cl)c1`, for which the IC50 was 7.77 µM.

`COc1ccccc1-c1nc2c3c(C)c(C)n(Cc4cccnc4)c3ncn2n1`: the IC50 was > 50 µM (inactive).

On to `CCOC(=O)[C@@H]1[C@@H](c2ccccc2)CN2CCN(C(=O)c3cnccn3)C[C@H]12`, for which the IC50 is > 50 µM (inactive).

For the molecule `COc1cc(C(=O)Nc2ccc(-c3csc(C)n3)cc2)cc(OC)c1OC`, the IC50 is > 50 µM (inactive).

Consider `CCN1CCN(C(=O)CCCN(c2ccccc2)S(C)(=O)=O)CC1`, for which the IC50 is > 50 µM (inactive).

Take `O=C(Nc1nnc2n1CCCS2)c1cc2ccccc2o1`: the IC50 was > 50 µM (inactive).

For `CCCc1nc2sc3c(NC4CCCCC4)ncnc3c2c2c1CCC2`, the IC50 was > 50 µM (inactive).

`CN(C)S(=O)(=O)c1ccc(N2CCCC2)c(C(=O)Nc2ccc(-c3cn4ccsc4n3)cc2)c1`: the IC50 is > 50 µM (inactive).

As for `COc1cccc(NC(=O)Cn2c(COc3ccccc3)nc3ccccc32)c1`, the IC50 was 4.83 µM.

For the molecule `c1ccc(-c2ccc(NCc3ccc4c(c3)OCO4)nn2)cc1`, the IC50 is 7.45 µM.

Turning to `O=C(Nc1ccncc1)c1ncoc1-c1cccc(Cl)c1`, the IC50 is > 50 µM (inactive).

In the case of `Cc1ccccc1NC(=O)c1ccc(N2CCCCC2)nn1`, the IC50 is > 50 µM (inactive).

For `COc1ccc(C(=O)C2CC(=O)Nc3c2c(C)nn3-c2ccc(Br)cc2)cc1` (stereo unspecified), the IC50 was 10 µM.

Regarding `Cc1cccc(NC(=O)CSc2ncnc3c2sc2nc(CC(C)C)c4c(c23)CCC4)c1`, the IC50 is 44.1 µM.

`COc1ccccc1NC(=O)c1nn(-c2cccc(F)c2)c(OC)cc1=O`: the half-inhibitory concentration (IC50) was 44.1 µM.

Consider `O=C(CC1C(=O)N(Cc2ccccc2)c2nc3ccccc3n21)NCCc1ccccc1` (stereo unspecified), for which the IC50 was 18.7 µM.

Take `CC(=O)c1ccc(NC(=O)c2ccc(N3CCCCS3(=O)=O)cc2Cl)cc1`: the half-inhibitory concentration (IC50) is 30.6 µM.

Turning to `CC1=C(C(=O)Nc2ccccc2C)C(c2ccc(OCc3ccccc3F)cc2)n2ncnc2N1` (stereo unspecified), the IC50 was 34.3 µM.

As to `Cc1ccc2oc(=O)c(S(=O)(=O)N3CCCCC3)cc2c1`, the IC50 is 16.4 µM.

For `Cc1cc(C(=O)N2CCN(C3CCN(Cc4ccc(Cl)o4)CC3)C(=O)C2)c(C)o1`, the IC50 is > 50 µM (inactive).

For `c1ccc(CCN2CCc3nc4cccnc4cc3C2)nc1`, the IC50 is > 50 µM (inactive).

On to `COc1ccc(C)cc1NC(=O)CSc1nc(C)nc2c1oc1ccccc12`, for which the IC50 is 22.3 µM.

Turning to `Cn1c(CN2CCCCCC2)nc2cc(NC(=O)c3ccccc3)ccc21`, the IC50 is > 50 µM (inactive).

Consider `O=C(Cc1noc2ccccc12)N1CCN(c2ccc([N+](=O)[O-])cc2)CC1`, for which the IC50 was > 50 µM (inactive).

On to `Cc1noc(C)c1CN1CC[C@H]2O[C@H](C(=O)NCc3ccco3)CC[C@H]21`, for which the IC50 was > 50 µM (inactive).

As to `CC1(C(=O)NC2CCCC2)Cn2c(cc3ccccc32)C(=O)N1c1ccc(F)cc1` (stereo unspecified), the IC50 was 30.9 µM.

Regarding `CNS(=O)(=O)c1ccc(CNC(=O)c2cc(-c3ccc(C)cc3)no2)cc1`, the IC50 was 20.2 µM.

As to `COc1ccc2[nH]cc(S(=O)(=O)c3ccc(C)c(F)c3)c(=O)c2c1`, the IC50 was 48 µM.

For `CC(=O)c1cccc(NC(=O)c2ccc(N3CCCCC3)nn2)c1`, the IC50 was 43 µM.

Consider `Cc1cc(=O)n2c3c(c4c(cc13)c(CO)cc(=O)n4C)OC2`, for which the IC50 was 9.79 µM.

Consider `CC1CCN(c2cc(-n3cnc(C(=O)N4CCCCC4)c3)ncn2)CC1`, for which the IC50 is > 50 µM (inactive).

`O=C1NCCCC1Cc1ccc(-c2cccc(C(=O)N3CCc4ccccc4C3)c2)cc1` (stereo unspecified): the IC50 is 38.2 µM.

Regarding `COc1ccc(NC(=O)C2c3ccccc3C(=O)N(C3CCCC3)C2c2cccs2)cc1OC` (stereo unspecified), the IC50 was 47.1 µM.

In the case of `CCOc1ccc2[nH]c3c(=O)n(CCc4ccc(OC)cc4)cnc3c2c1`, the IC50 is 4.41 µM.

Consider `CC(C)CC1NC(=O)C2CCCN2C1=O` (stereo unspecified), for which the IC50 is 37.5 µM.

On to `Cc1c(S(=O)(=O)NC2CCCCNC2=O)sc2ccc(Cl)cc12` (stereo unspecified), for which the IC50 is 43.1 µM.

As to `Cc1ccc(-c2cnc(C3CC3)o2)cc1S(=O)(=O)Nc1ccc(F)c(Cl)c1`, the IC50 was 38.1 µM.

On to `CCc1ccc(Nc2cc(C(=O)NCCCOC(C)C)c3ccccc3n2)cc1`, for which the IC50 was 10.7 µM.

For the molecule `CCOC(=O)c1ccc(NC(=O)C[n+]2cc(-c3ccc(Cl)cc3)n3c2CCC3)cc1`, the IC50 is > 50 µM (inactive).

For `Cc1cccc(C(=O)N2CCN3Cc4ccccc4N(C)CC3C2)c1` (stereo unspecified), the IC50 was > 50 µM (inactive).

Regarding `O=C(NCc1ccc(-c2nc3cnccc3o2)cc1)c1cc2ccccc2o1`, the IC50 was 3.29 µM.

The values are drawn from PubChem BioAssay AID1645864 (Buhrlage Lab, Dana-Farber Cancer Institute and Novartis …, 2021).
